Measurements as given in US9278527B2, “Ink jet recording ink, ink jet recording method, ink jet recording head, and ink jet recording apparatus” (CANON FINETECH INC., priority 2013, dated 2016).
Like-named read-outs stand apart in the source and are kept apart here.

Assays:
[1] = Hydrophilicity-hydrophobicity coefficient from water activity value of 20% aqueous solution (equation (A)); type: physicochemical
[2] = 20% aqueous solution, water activity by chilled mirror dew point method (AquaLab CX-3TE) at 25° C., equation (A)

Compound | Solubility (Solubility in water) | Hydrophilicity-hydrophobicity coefficient [1, 2] | Hydrophilicity-hydrophobicity coefficient [1]
Polyethylene glycol 200 | > 20 g/100 g H2O | −0.09 | –
OC[C@@H](O)[C@@H](O)[C@H](O)[C@@H](O)CO [Sorbitol] | > 20 g/100 g H2O | 0.21 | –
OCC(O)CO [Glycerin] | > 20 g/100 g H2O | 0.11 | –
OCCCCCCO [1,6-Hexanediol] | > 20 g/100 g H2O | 0.76 | –
NC(N)=O [Urea] | > 20 g/100 g H2O | 0.20 | –
Bishydroxyethyl sulfone | – | – | 0.21
CC(C)(O)CCO [3-Methyl-1,3-butanediol] | > 20 g/100 g H2O | 0.90 | –
CCCCC(O)CO (stereo not drawn) [1,2-Hexanediol] | > 20 g/100 g H2O | 0.97 | –
OCCCCC(O)CO (stereo not drawn) [1,2,6-Hexanetriol] | > 20 g/100 g H2O | 0.28 | –
CCC(O)CO (stereo not drawn) [1,2-Butanediol] | > 20 g/100 g H2O | 0.90 | –
CCCC(O)CO (stereo not drawn) [1,2-Pentanediol] | > 20 g/100 g H2O | 0.93 | –

More lines, main results first:

Solubility (Solubility in water) | Hydrophilicity-hydrophobicity coefficient [1, 2] | Compound | Hydrophilicity-hydrophobicity coefficient [1]
> 20 g/100 g H2O | 0.54 | CC(CCO)CCO [3-Methyl-1,5-Pentanediol] | –
> 20 g/100 g H2O | 0.15 | OCCC(O)CO (stereo not drawn) [1,2,4-Butanetriol] | –
> 20 g/100 g H2O | 0.86 | CC(O)CC(C)O (stereo not drawn) [2,4-Pentanediol] | –
> 20 g/100 g H2O | 0.07 | OCCOCCOCCO [Triethylene glycol] | –
> 20 g/100 g H2O | −0.43 | Polyethylene glycol 600 | –
> 20 g/100 g H2O | 0.41 | OCCCCCO [1,5-Pentanediol] | –
> 20 g/100 g H2O | 0.22 | CC(O)C(O)CO (stereo not drawn) [1,2,3-Butanetriol] | –
> 20 g/100 g H2O | 0.30 | O=C1NCCN1 [Ethylene urea] | –
> 20 g/100 g H2O | 0.73 | OCCCCCCCO [1,7-Heptanediol] | –
